Results published in patent publication US8946426B2, “Substituted bicyclic heterocyclic compounds as gamma secretase modulators” (Janssen Pharmaceuticals, Inc., priority 2009, dated 2015).

Key:
Aβtotal [1] = assay: In vivo efficacy: Aβtotal lowering in brain after single oral dose (Table 8); conditions: mouse brain soluble fraction, ELISA, compared to untreated animals
From the text: To determine whether acute administration of an Aβ42 lowering agent would reduce Aβ42 levels in vivo, non-transgenic rodents, e.g. mice or rats were used. Alternatively, two to three month old Tg2576 mice expressing APP695 containing the “Swedish” variant can be used or a transgenic mouse model developed by Dr. Fred Van Leuven (K.U.Leuven, Belgium) and co-workers, with neuron-specific expression of a clinical mutant of the human amyloid precursor protein [V7171] (Moechars et al., 1999 J. Biol. Chem. 274, 6483). Young transgenic mice have high levels of Aβ in the brain but no detectable Aβ deposition. At approximately 6-8 months of age, the transgenic mice start to display spontaneous, progressive accumulation of β-amyloid (Aβ) in the brain, eventually resulting in amyloid plaques within the subiculum, hippocampus and cortex. Animals treated with the Aβ42 lowering agent were examined and compared to those untreated or treated with vehicle and brain levels of soluble Aβ42 and total Aβ would be quantitated by standard techniques, for example, using ELISA. Treatment periods varied from hours to days and were adjusted based on the results of the Aβ42 lowering once a time course of onset of effect could be established.
A typical protocol for measuring Aβ42 lowering in vivo is shown but it is only one of many variations that could be used to optimize the levels of detectable Aβ. For example, Aβ42 lowering compounds were formulated in 20% of Captisol® (a sulfobutyl ether of β-cyclodextrin) in water or 20% hydroxypropyl β cyclodextrin. The Aβ42 lowering agents were administered as a single oral dose or by any acceptable route of administration to overnight fasted animals. After four hours, the animals were sacrificed and Aβ42 levels were analysed.
Blood was collected by decapitation and exsanguinations in EDTA-treated collection tubes. Blood was centrifuged at 1900 g for 10 min at 4° C. and the plasma recovered and flash frozen for later analysis. The brain was removed from the cranium and hindbrain. The cerebellum was removed and the left and right hemisphere were separated. The left hemisphere was stored at −18° C. for quantitative analysis of test compound levels. The right hemisphere was rinsed with phosphate-buffered saline (PBS) buffer and immediately frozen on dry ice and stored at −80° C. until homogenization for biochemical assays.
Mouse brains were resuspended in 10 volumes of 0.4% DEA (diethylamine)/50 mM NaCl pH 10 (for non-transgenic animals) or 0.1% 3-[(3-cholamidopropyl)-dimethyl-ammonio]-1-propanesulfonate (CHAPS) in tris buffered saline (TBS) (for transgenic animals) containing protease inhibitors (Roche-11873580001 or 04693159000 per gram of tissue, e.g. for 0.158 g brain, add 1.58 ml of 0.4% DEA. All samples were sonicated for 30 sec on ice at 20% power output (pulse mode). Homogenates were centrifuged at 221.300×g for 50 min. The resulting high speed supernatants were then transferred to fresh tubes and were optionally further purified before the next step. A portion of the supernatant was neutralized with 10% 0.5 M Tris-HCl and this was used to quantify Aβtotal.
The obtained supernatants were purified with Water Oasis HLB reverse phase columns (Waters Corp., Milford, Mass.) to remove non-specific immunoreactive material from the brain lysates prior subsequent Aβ detection. Using a vacuum manifold, all solutions were passed through the columns at a rate of approximately 1 ml per minute, so the vacuum pressure was adjusted accordingly throughout the procedure. Columns were preconditioned with 1 ml of 100% MeOH, before equilibration with 1 ml of H2O. Non-neutralized brain lysates were loaded onto the columns. The loaded samples were then washed twice with the first wash performed with 1 ml of 5% MeOH, and the second wash with 1 ml of 30% MeOH. Finally, the Aβ was eluted from the columns and into 100×30 mm glass tubes, with a solution of 90% MeOH with 2% NH4OH. […]

Aβtotal [2] = assay: Method 2: Aβtotal Alphalisa in supernatant of SKNBE2 cells carrying APP 695-wild type (Table 7c); format: cell-based; conditions: Method 2, Alphalisa, overnight incubation
How it was run: (§1)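 SKNBE2 cells expressing wild-type APP695 incubated overnight at 37° C with test compound, 10^4 cells/well. Supernatant Aβ42 (C-terminal JRF/cAβ42/26 with N-terminal JRF/AβN/25) and Aβtotal (JRF/AβN/25 with 4G8) quantified by AlphaLISA. IC50 from 4-parameter fit of percent of untreated control.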

Aβ42 = assay: Method 2: Aβ42 Alphalisa in supernatant of SKNBE2 cells carrying APP 695-wild type (Table 7c); format: cell-based; conditions: Method 2, Alphalisa, overnight incubation
How it was run: as §1

Structure (SMILES) | IC50 (Aβtotal [2]; Homo sapiens) [nM] | IC50 (Aβ42; Homo sapiens) [nM] | IC50 (Aβtotal [2]) [nM] | IC50 (Aβ42) [nM] | Aβtotal (% Ctrl)_Mean (Aβtotal [1]) [% Ctrl]
Cc1ncoc1-c1ccc(Nc2cccc3c2nc(-c2ccc(F)cc2)n3C)nc1 [Compound 10] | > 10000 | 1740 | – | – | 109
COc1cc(Nc2cccc3c2nc(CCC(F)(F)F)n3C)ccc1-c1ocnc1C [Compound 11] | > 10000 | 363 | – | – | 99
COc1cc(Nc2cccc3c2nc(-c2ccc(F)cc2)n3C)ccc1-c1ocnc1C [Compound 12] | 7760 | 35 | – | – | 101
COc1cc(Nc2cccc3c2nc(-c2ccc(F)cc2)n3C)ccc1-c1cnc(C)o1 [Compound 16] | 8710 | 16 | – | – | 95
Cc1ncc(-c2ccc(Nc3nccc4c3nc(-c3ccc(F)cc3)n4C)cc2F)o1 [Compound 17] | > 10000 | 166 | – | – | 109
Cc1ncc(-c2ccc(Nc3cccc4c3nc(-c3ccc(F)cc3)n4C(C)C)cn2)o1 [Compound 18] | 6460 | 20 | – | – | 94
COc1cccc(-c2nc3c(Nc4ccc(-c5cnc(C)o5)nc4)cc(F)cc3n2C)c1 [Compound 105] | – | – | > 10000 | 14 | 96

More lines, main results first:

IC50 (Aβtotal [2]; Homo sapiens) [nM] | IC50 (Aβ42; Homo sapiens) [nM] | IC50 (Aβtotal [2]) [nM] | IC50 (Aβ42) [nM] | Structure (SMILES) | Aβtotal (% Ctrl)_Mean (Aβtotal [1]) [% Ctrl]
– | – | > 10000 | 7410 | COc1cc(Nc2nc(C(F)(F)F)cn3cc(C)nc23)ccc1-c1cnc(C)o1 [Compound 170] | 99
– | – | > 10000 | 41 | COc1cc(Nc2cncc3c2nc(-c2ccc(F)cc2)n3C)ccc1-c1cnc(C)o1 [Compound 186] | 82
– | – | > 10000 | 282 | COc1cc(Nc2cc(C(F)(F)F)nn3cc(C)nc23)ccc1-c1cnc(C)o1 [Compound 195] | 99
